Article PMC7503464 (Molecules, 2020)

Tests used:
Experiment in all cases: biochemical
[1] = molecular target: T1, dihydrofolate reductase (DHFR; wt-DHFR and midW mutants) (Escherichia coli, UniProt P0ABQ4, W133F/W22F/W30F/W74F)
T1 construct: gene folA
Source text: (§1) isothermal titration calorimetry on dihydrofolate reductase (DHFR; wt-DHFR and midW mutants)

[2] = molecular target: T2, dihydrofolate reductase (DHFR; wt-DHFR and midW mutants) (Escherichia coli, UniProt P0ABQ4, W133F/W22F/W47F/W74F)
T2 construct: gene folA
Source text: as §1

[3] = molecular target: T3, dihydrofolate reductase (DHFR; wt-DHFR and midW mutants) (Escherichia coli, UniProt P0ABQ4, W133F/W30F/W47F/W74F)
T3 construct: gene folA
Source text: as §1

[4] = molecular target: T4, dihydrofolate reductase (DHFR; wt-DHFR and midW mutants) (Escherichia coli, UniProt P0ABQ4, W22F/W30F/W47F/W74F)
T4 construct: gene folA
Source text: as §1

[5] = molecular target: T5, dihydrofolate reductase (DHFR; wt-DHFR and midW mutants) (Escherichia coli, UniProt P0ABQ4, W133F/W22F/W30F/W47F)
T5 construct: gene folA
Source text: as §1

Nc1nc2ncc(CNc3ccc(C(=O)N[C@@H](CCC(=O)O)C(=O)O)cc3)nc2c(=O)[nH]1 [folate]
Kd [1]: 12 µM | Kd [2]: 4.5 µM | Kd [3]: 3.7 µM | Kd [4]: 9.5 µM | Kd [5]: 8.4 µM
